Assay results taken from PubChem BioAssay (NCI).
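GI50 marks 50% less growth. TGI: total growth inhibition.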

What was measured:
Assay in all cases: DTP human tumour cell line panel, 384-well format
M14 melanoma = test system: M14 melanoma
IGROV1 ovarian = test system: IGROV1 ovarian
RXF 393 renal = test system: RXF 393 renal
ACHN renal = test system: ACHN renal
MDA-MB-231 breast = test system: MDA-MB-231 breast
SF-539 CNS = test system: SF-539 CNS
UACC-257 melanoma = test system: UACC-257 melanoma
K-562 leukemia = test system: K-562 leukemia
HOP-62 NSCLC = test system: HOP-62 NSCLC
MALME-3M melanoma = test system: MALME-3M melanoma
KM12 colon = test system: KM12 colon
OVCAR-3 ovarian = test system: OVCAR-3 ovarian
BT-549 breast = test system: BT-549 breast
SF-295 CNS = test system: SF-295 CNS
SF-268 CNS = test system: SF-268 CNS
LOX IMVI melanoma = test system: LOX IMVI melanoma
HCT-15 colon = test system: HCT-15 colon
HL-60(TB) leukemia = test system: HL-60(TB) leukemia
SK-MEL-28 melanoma = test system: SK-MEL-28 melanoma
HT29 colon = test system: HT29 colon
DU-145 prostate = test system: DU-145 prostate
U251 glioblastoma = test system: U251 glioblastoma
NCI/ADR-RES ovarian = test system: NCI/ADR-RES ovarian
HOP-92 NSCLC = test system: HOP-92 NSCLC
786-0 renal = test system: 786-0 renal
UO-31 renal = test system: UO-31 renal
HCC-2998 colon = test system: HCC-2998 colon
OVCAR-5 ovarian = test system: OVCAR-5 ovarian
UACC-62 melanoma = test system: UACC-62 melanoma

O=C(NOCC1CC1)c1ccc(F)c(F)c1Nc1ccc(I)cc1Cl
GI50 (M14 melanoma): 34.9 nM | TGI (M14 melanoma): 176 nM | GI50 (IGROV1 ovarian): 1080 nM | TGI (IGROV1 ovarian): 2810 nM | GI50 (RXF 393 renal): 2110 nM | TGI (RXF 393 renal): 11600 nM | GI50 (ACHN renal): 1660 nM | TGI (ACHN renal): 15400 nM | GI50 (MDA-MB-231 breast): 896 nM | TGI (MDA-MB-231 breast): 2960 nM | GI50 (SF-539 CNS): 1620 nM | TGI (SF-539 CNS): 3610 nM | GI50 (UACC-257 melanoma): 46 nM | TGI (UACC-257 melanoma): 234 nM | GI50 (K-562 leukemia): 1750 nM | TGI (K-562 leukemia): 10700 nM | GI50 (HOP-62 NSCLC): 868 nM | TGI (HOP-62 NSCLC): 6430 nM | GI50 (MALME-3M melanoma): 17 nM | TGI (MALME-3M melanoma): 44.8 nM | GI50 (KM12 colon): 414 nM | TGI (KM12 colon): 3930 nM | GI50 (OVCAR-3 ovarian): 1640 nM | TGI (OVCAR-3 ovarian): 3320 nM | GI50 (BT-549 breast): 2730 nM | TGI (BT-549 breast): 14800 nM | GI50 (SF-295 CNS): 2250 nM | TGI (SF-295 CNS): 6090 nM | GI50 (SF-268 CNS): 3180 nM | TGI (SF-268 CNS): 14700 nM | GI50 (LOX IMVI melanoma): 337 nM | TGI (LOX IMVI melanoma): 1690 nM | GI50 (HCT-15 colon): 2290 nM | TGI (HCT-15 colon): 11500 nM | GI50 (HL-60(TB) leukemia): 37.5 nM | TGI (HL-60(TB) leukemia): 808 nM | GI50 (SK-MEL-28 melanoma): 35.2 nM | TGI (SK-MEL-28 melanoma): 208 nM | GI50 (HT29 colon): 279 nM | TGI (HT29 colon): 10300 nM | GI50 (DU-145 prostate): 3490 nM | TGI (DU-145 prostate): 15300 nM | GI50 (U251 glioblastoma): 2110 nM | TGI (U251 glioblastoma): 8040 nM | GI50 (NCI/ADR-RES ovarian): 1740 nM | TGI (NCI/ADR-RES ovarian): 3690 nM | GI50 (HOP-92 NSCLC): 1060 nM | TGI (HOP-92 NSCLC): 2410 nM | GI50 ([…]-0 renal): 1860 nM | TGI (786-0 renal): 9930 nM | GI50 (UO-31 renal): 2340 nM | TGI (UO-31 renal): > 100000 nM | GI50 (HCC-2998 colon): 84.7 nM | TGI (HCC-2998 colon): 540 nM | GI50 (OVCAR-5 ovarian): 304 nM | TGI (OVCAR-5 ovarian): 2650 nM | GI50 (UACC-62 melanoma): 40 nM | TGI (UACC-62 melanoma): 259 nM
